According to patent US20260285850A1, “SUBSTITUTED OXAZOLIDINONES AND IMIDAZOLINONES AS HERBICIDES” (FMC CORPORATION, priority 2023, published 2026):

What was measured:
Format in all cases: in vivo
[1] = system: oat, wild (wild oat, Avena fatua); test: Test A preemergence soil spray, visual injury rating 0-100; details: 10 days
Method in brief: (§1)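 Plants in a loam and sand soil blend were treated with each test chemical, in a non-phytotoxic solvent system including surfactant, either sprayed on seeded soil before emergence or applied after emergence at the one- to two-leaf stage. Ten days later in the greenhouse, plants were compared with untreated controls and visually rated from 0 (no effect) to 100 (complete control).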

[2] = system: corn (Zea mays); test: as above; details: 10 days
Method in brief: as §1

[3] = system: palmer (palmer amaranth, palmer pigweed, Amaranthus palmeri); test: as above; details: 10 days
Method in brief: as §1

[4] = system: ragweed (common ragweed, Ambrosia artemisiifolia); test: as above; details: 10 days
Method in brief: as §1

[5] = system: ryegrass, Italian (italian ryegrass, Lolium multiflorum); test: as above; details: 10 days
Method in brief: as §1

[6] = system: kochia (Bassia scoparia); test: as above; details: 62 g ai/ha, 10 days, 0 = no effect, 100 = complete control
Method in brief: as §1

[7] = system: soybean (Glycine max); test: as above; details: 10 days
Method in brief: as §1

[8] = system: green foxtail (Setaria viridis); test: as above; details: 10 days
Method in brief: as §1

[9] = system: wheat (Triticum aestivum); test: as above; details: 10 days
Method in brief: as §1

[10] = system: blackgrass (Alopecurus myosuroides); test: as above; details: 10 days
Method in brief: as §1

[11] = system: barnyardgrass (Echinochloa crus-galli); test: as above; details: 10 days
Method in brief: as §1

[12] = system: oat, wild (wild oat, Avena fatua); test: Test A postemergence application, visual injury rating 0-100
Method in brief: as §1

[13] = system: corn (Zea mays); test: as above
Method in brief: as §1

[14] = system: galium (catchweed bedstraw, Galium aparine); test: as above
Method in brief: as §1

[15] = system: palmer (palmer amaranth, palmer pigweed, Amaranthus palmeri); test: as above
Method in brief: as §1

[16] = system: ragweed (common ragweed, Ambrosia artemisiifolia); test: as above
Method in brief: as §1

[17] = system: ryegrass, Italian (italian ryegrass, Lolium multiflorum); test: as above
Method in brief: as §1

[18] = system: kochia (Bassia scoparia); test: as above
Method in brief: as §1

[19] = system: soybean (Glycine max); test: as above
Method in brief: as §1

[20] = system: horseweed (Erigeron canadensis); test: as above
Method in brief: as §1

[21] = system: green foxtail (Setaria viridis); test: as above
Method in brief: as §1

[22] = system: wheat (Triticum aestivum); test: as above
Method in brief: as §1

[23] = system: blackgrass (Alopecurus myosuroides); test: as above
Method in brief: as §1

[24] = system: barnyardgrass (Echinochloa crus-galli); test: as above
Method in brief: as §1

[25] = system: barnyardgrass (Echinochloa crusgalli); test: Test B flooded paddy test, visual plant response rating 0-100; details: 250 g ai/ha, Flood, applied to paddy water, evaluated after 13 days
Method in brief: (§2)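 Treatment occurs at the 2-leaf stage by adding compound to floodwater standing 3 cm above the soil, a level kept for the whole test. Plants stay in the greenhouse 13 days before visual comparison with controls.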

[26] = system: rice (Oryza sativa); test: as above; details: 250 g ai/ha, Flood, applied to paddy water, evaluated after 13 days
Method in brief: as §2

[27] = system: ducksalad (Heteranthera limosa); test: as above; details: 250 g ai/ha, Flood, applied to paddy water, evaluated after 13 days
Method in brief: as §2

[28] = system: sedge, umbrella (small-flower umbrella sedge, Cyperus difformis); test: as above; details: 250 g ai/ha, Flood, applied to paddy water, evaluated after 13 days
Method in brief: as §2

[29] = 62 g ai/ha, 0 = no effect, 100 = complete control
[30] = 62 g ai/ha, postemergence, 10 days, 0 = no effect, 100 = complete control
[31] = Postemergence, 16 g ai/ha, greenhouse 10 days, 0 no effect, 100 complete control

COC(=O)C1C=CC(NC(=O)C2(C)CN(c3cc(C)cc(C)c3)C(=O)O2)C1 (stereo not drawn) [Compound 115]
Oat, Wild plant response rating ([1]; 16 g ai/ha, 0 to 100 scale): 0 | Oat, Wild plant response rating (0-100) [1, 29]: 40 | Corn plant response rating ([2]; 16 g ai/ha, 0 to 100 scale): 0 | Corn plant response rating (0-100) [2, 29]: 20 | Pigweed, Palmer plant response rating ([3]; 16 g ai/ha, 0 to 100 scale): 20 | Pigweed, Palmer plant response rating (0-100) [3, 29]: 90 | Ragweed plant response rating ([4]; 16 g ai/ha, 0 to 100 scale): 0 | Ragweed plant response rating (0-100) [4, 29]: 0 | Ryegrass, Italian plant response rating ([5]; 16 g ai/ha, 0 to 100 scale): 10 | Ryegrass, Italian plant response rating (0-100) [5, 29]: 30 | Kochia plant response rating (0-100) [6]: 100 | Soybean plant response rating ([7]; 16 g ai/ha, 0 to 100 scale): 0 | Soybean plant response rating (0-100) [7, 29]: 0 | Foxtail, Green plant response rating ([8]; 16 g ai/ha, 0 to 100 scale): 0 | Foxtail, Green plant response rating (0-100) [8, 29]: 30 | Wheat plant response rating ([9]; 16 g ai/ha, 0 to 100 scale): 0 | Wheat plant response rating (0-100) [9, 29]: 30 | Blackgrass plant response rating ([10]; 16 g ai/ha, 0 to 100 scale): 20 | Blackgrass plant response rating (0-100) [10, 29]: 60 | Barnyardgrass plant response rating ([11]; 16 g ai/ha, 0 to 100 scale): 30 | Barnyardgrass plant response rating (0-100) [11, 29]: 100 | Oat, Wild plant response rating (0-100) [12, 30]: 90 | Oat, Wild plant response rating (0 to 100 scale) [12, 31]: 80 | Corn plant response rating (0-100) [13, 30]: 100 | Corn plant response rating (0 to 100 scale) [13, 31]: 60 | Galium plant response rating (0-100) [14, 30]: 70 | Galium plant response rating (0 to 100 scale) [14, 31]: 60 | Pigweed, Palmer plant response rating (0-100) [15, 30]: 10 | Pigweed, Palmer plant response rating (0 to 100 scale) [15, 31]: 10 | Ragweed plant response rating (0-100) [16, 30]: 30 | Ragweed plant response rating (0 to 100 scale) [16, 31]: 0 | Ryegrass, Italian plant response rating (0-100) [17, 30]: 70 | Ryegrass, Italian plant response rating (0 to 100 scale) [17, 31]: 40 | Kochia plant response rating (0-100) [18, 30]: 70 | Kochia plant response rating (0 to 100 scale) [18, 31]: 0 | Soybean plant response rating (0-100) [19, 30]: 60 | Soybean plant response rating (0 to 100 scale) [19, 31]: 40 | Horseweed plant response rating (0-100) [20, 30]: 0 | Horseweed plant response rating (0 to 100 scale) [20, 31]: 10 | Foxtail, Green plant response rating (0-100) [21, 30]: 30 | Foxtail, Green plant response rating (0 to 100 scale) [21, 31]: 10 | Wheat plant response rating (0-100) [22, 30]: 80 | Wheat plant response rating (0 to 100 scale) [22, 31]: 30 | Blackgrass plant response rating (0-100) [23, 30]: 90 | Blackgrass plant response rating (0 to 100 scale) [23, 31]: 70 | Barnyardgrass plant response rating (0-100) [24, 30]: 100 | Barnyardgrass plant response rating (0 to 100 scale) [24, 31]: 70 | Plant response rating, Barnyardgrass (0 to 100 scale, 0 is no effect and 100 is complete control) [25]: 65 | Plant response rating, Rice (0 to 100 scale, 0 is no effect and 100 is complete control) [26]: 25 | Plant response rating, Ducksalad (0 to 100 scale, 0 is no effect and 100 is complete control) [27]: 80 | Plant response rating, Sedge, Umbrella (0 to 100 scale, 0 is no effect and 100 is complete control) [28]: 0
